The target in one experiment is T1, ALK (Homo sapiens, UniProt Q9UM73).
T1 construct: host or cells: baculovirus expression system
The experiment in a line: ALK Kinase Assay (ELISA/TRF, PLC-γ substrate). The format is biochemical. The settings on record: ALK kinase inhibition, 1 μM ATP; read-out: ALK Potency. Put shortly:
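Wells were coated with 10 μg/mL phospholipase C-γ substrate in TBS, and the reaction was started by adding 30 ng/ml ALK enzyme and run at 37° C for 15 minutes. Phosphorylated product was detected with Eu-N1-labeled PT66 antibody, and IC50 values came from sigmoidal variable-slope fits of percent inhibition against log concentration.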
On the technique in general: In an ELISA, binding on a coated surface is turned into a signal by an enzyme label.

The target in a further experiment is T2, JAK2 (Homo sapiens, UniProt O60674).
T2 construct: host or cells: baculovirus expression system
The experiment in a line: Recombinant Human JAK2 Kinase Assay (TRF). The settings on record: JAK2 kinase inhibition, 0.2 μM ATP; read-out: JAK2 Potency. Format: biochemical. Put shortly: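 Europium-labelled PY100 antibody reported tyrosine phosphorylation of a Neutravidin-captured biotinyl 15-mer peptide by JAK2 (baculovirus-expressed, 15 ng/ml). Conditions: 20 mM HEPES pH 7.2, 0.2 μM ATP, 1 mM MnCl2, 0.1% BSA, DMSO 2.5% final, 20 min at room temperature.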

Experimental findings from patent US8471005B2 (Cephalon, Inc., priority 2008, dated 2013) are described below.

T2 sequence (O60674 whole entry): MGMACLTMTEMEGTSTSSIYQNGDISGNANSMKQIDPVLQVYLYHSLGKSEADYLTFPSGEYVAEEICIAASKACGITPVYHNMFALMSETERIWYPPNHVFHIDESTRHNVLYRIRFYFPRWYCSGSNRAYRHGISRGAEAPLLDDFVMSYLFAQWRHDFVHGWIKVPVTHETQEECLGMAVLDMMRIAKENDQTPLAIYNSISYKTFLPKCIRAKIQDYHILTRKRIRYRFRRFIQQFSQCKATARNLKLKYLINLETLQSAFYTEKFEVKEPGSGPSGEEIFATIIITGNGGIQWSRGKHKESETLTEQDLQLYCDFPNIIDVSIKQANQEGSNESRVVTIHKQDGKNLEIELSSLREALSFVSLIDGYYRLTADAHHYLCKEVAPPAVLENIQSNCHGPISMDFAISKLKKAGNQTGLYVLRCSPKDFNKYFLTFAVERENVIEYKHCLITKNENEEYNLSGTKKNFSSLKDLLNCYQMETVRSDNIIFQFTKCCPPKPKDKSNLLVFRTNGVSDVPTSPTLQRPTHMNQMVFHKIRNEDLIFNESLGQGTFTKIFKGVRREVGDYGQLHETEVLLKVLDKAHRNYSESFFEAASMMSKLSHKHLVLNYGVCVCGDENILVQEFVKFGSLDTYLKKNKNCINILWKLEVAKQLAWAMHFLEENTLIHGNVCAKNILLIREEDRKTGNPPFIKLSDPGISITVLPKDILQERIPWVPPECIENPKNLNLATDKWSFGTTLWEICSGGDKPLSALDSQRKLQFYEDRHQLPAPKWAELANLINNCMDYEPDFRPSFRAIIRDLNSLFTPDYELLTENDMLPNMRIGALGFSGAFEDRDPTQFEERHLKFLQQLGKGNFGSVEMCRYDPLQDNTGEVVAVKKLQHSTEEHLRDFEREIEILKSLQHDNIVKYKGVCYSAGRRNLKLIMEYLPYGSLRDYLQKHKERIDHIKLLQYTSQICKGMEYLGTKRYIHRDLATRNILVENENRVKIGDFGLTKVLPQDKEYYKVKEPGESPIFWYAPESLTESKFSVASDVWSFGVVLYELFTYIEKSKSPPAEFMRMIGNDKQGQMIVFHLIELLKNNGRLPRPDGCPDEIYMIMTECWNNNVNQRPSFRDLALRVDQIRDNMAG
T1 sequence (Q9UM73 19-1620): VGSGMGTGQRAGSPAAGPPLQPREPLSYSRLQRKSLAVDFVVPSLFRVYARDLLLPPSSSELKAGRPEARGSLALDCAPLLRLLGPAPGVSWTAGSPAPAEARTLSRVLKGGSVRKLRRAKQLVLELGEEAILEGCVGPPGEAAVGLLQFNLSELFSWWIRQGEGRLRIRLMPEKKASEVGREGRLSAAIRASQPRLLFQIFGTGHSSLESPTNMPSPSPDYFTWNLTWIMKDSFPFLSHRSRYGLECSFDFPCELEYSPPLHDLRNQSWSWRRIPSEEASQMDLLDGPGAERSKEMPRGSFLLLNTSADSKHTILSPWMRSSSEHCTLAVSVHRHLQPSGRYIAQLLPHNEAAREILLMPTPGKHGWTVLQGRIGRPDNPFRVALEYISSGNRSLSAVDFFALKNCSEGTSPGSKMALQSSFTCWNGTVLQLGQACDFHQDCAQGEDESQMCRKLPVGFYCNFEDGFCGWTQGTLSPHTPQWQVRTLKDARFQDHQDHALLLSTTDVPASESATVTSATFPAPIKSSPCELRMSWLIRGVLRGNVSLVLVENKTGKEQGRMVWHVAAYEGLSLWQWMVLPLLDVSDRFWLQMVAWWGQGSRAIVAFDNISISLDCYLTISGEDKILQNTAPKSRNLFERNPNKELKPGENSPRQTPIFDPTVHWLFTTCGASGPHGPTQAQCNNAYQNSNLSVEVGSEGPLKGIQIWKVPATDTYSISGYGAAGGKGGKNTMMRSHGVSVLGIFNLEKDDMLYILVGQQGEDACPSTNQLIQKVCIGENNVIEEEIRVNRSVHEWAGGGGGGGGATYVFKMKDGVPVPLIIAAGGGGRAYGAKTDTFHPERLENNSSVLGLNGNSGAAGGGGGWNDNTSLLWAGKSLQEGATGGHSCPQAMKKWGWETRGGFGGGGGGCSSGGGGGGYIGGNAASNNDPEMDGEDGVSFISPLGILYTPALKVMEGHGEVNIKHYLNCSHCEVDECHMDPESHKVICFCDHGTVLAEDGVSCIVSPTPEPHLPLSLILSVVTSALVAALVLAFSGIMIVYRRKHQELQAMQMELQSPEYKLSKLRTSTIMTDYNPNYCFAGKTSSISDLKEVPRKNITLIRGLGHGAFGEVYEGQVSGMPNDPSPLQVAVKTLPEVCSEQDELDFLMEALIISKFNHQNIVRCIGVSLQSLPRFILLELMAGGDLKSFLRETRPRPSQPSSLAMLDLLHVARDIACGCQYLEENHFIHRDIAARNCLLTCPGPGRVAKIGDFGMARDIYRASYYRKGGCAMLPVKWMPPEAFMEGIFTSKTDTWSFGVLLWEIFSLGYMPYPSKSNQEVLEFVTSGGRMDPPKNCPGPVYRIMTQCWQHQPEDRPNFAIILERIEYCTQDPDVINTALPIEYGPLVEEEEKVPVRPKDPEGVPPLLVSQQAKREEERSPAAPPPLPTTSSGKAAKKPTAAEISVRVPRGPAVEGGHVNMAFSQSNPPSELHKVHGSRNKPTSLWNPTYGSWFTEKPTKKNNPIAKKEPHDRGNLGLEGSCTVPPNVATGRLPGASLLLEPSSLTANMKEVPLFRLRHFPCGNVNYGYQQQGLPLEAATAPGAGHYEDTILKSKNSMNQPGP

Take `CS(=O)(=O)c1ccc(-c2ccc3cnc(Nc4ccc5c(c4)NC(=O)C(NC(=O)C(F)(F)F)CC5)nn23)cc1` (stereo not shown) [Example 1174, 2,2,2-Trifluoro-N-{8-[7-(4-methanesulfonyl-phenyl)-pyrrolo[2,1-f][1,2,4]triazin-2-ylamino]-2-oxo-2,3,4,5-tetrahydro-1H-benzo[b]azepin-3-yl}-acetamide]: the figures for the IC50 at ALK and on JAK2 were more than 10000 nM and less than 100 nM, respectively.

Consider `CN(c1ccccc1-c1ccc2cnc(Nc3ccc(N4CCN(CCO)CC4)cc3)nn12)S(C)(=O)=O` [Example 1175, N-[2-(2-{4-[4-(2-Hydroxy-ethyl)-piperazin-1-yl]-phenylamino}-pyrrolo[2,1-f][1,2,4]triazin-7-yl)-phenyl]-N-methyl-methanesulfonamide], for which the IC50 on ALK and on JAK2 was less than 100 nM each time.

In the case of `CN(c1ccccc1-c1ccc2cnc(Nc3ccc(N4CCOCC4)cn3)nn12)S(C)(=O)=O` [Example 1176, N-Methyl-N-{2-[2-(5-morpholin-4-yl-pyridin-2-ylamino)-pyrrolo[2,1-f][1,2,4]triazin-7-yl]-phenyl}-methanesulfonamide], the IC50 on ALK was 1000 to 10000 nM; on JAK2, less than 100 nM.

Turning to `COc1ccccc1-c1ccc2cnc(Nc3ccc(N4CCN(C)CC4)cn3)nn12` [Example 1177, [7-(2-Methoxy-phenyl)-pyrrolo[2,1-f][1,2,4]triazin-2-yl]-[5-(4-methyl-piperazin-1-yl)-pyridin-2-yl]-amine], the IC50 at ALK is 100 to 1000 nM; on JAK2 it was less than 100 nM.

For `CN1CCC(c2ccc(Nc3ncc4ccc(-c5ccccc5N(C)S(C)(=O)=O)n4n3)cc2)CC1` [Example 1178, N-Methyl-N-(2-{2-[4-(1-methyl-piperidin-4-yl)-phenylamino]-pyrrolo[2,1-f][1,2,4]triazin-7-yl}-phenyl)-methanesulfonamide], the IC50 at ALK and on JAK2 was less than 100 nM each time.

Regarding `CN1CCC(c2ccc(Nc3ncc4ccc(-c5cccnc5)n4n3)cc2)CC1` [Example 1179, [4-(1-Methyl-piperidin-4-yl)-phenyl]-(7-pyridin-3-yl-pyrrolo[2,1-f][1,2,4]triazin-2-yl)-amine], the IC50 was 100 to 1000 nM on ALK and less than 100 nM on JAK2.

Turning to `COc1ccc(-c2ccc3cnc(Nc4ccc(C5CCN(C)CC5)cc4)nn23)cn1` [Example 1180, [7-(6-Methoxy-pyridin-3-yl)-pyrrolo[2,1-f][1,2,4]triazin-2-yl]-[4-(1-methyl-piperidin-4-yl)-phenyl]-amine], the IC50 on ALK was 100 to 1000 nM; at JAK2, less than 100 nM.

Take `Cn1cc(-c2ccc3cnc(Nc4ccc(N5CCN(CCO)CC5)cc4)nn23)cn1` [Example 1181, 2-(4-{4-[7-(1-Methyl-1H-pyrazol-4-yl)-pyrrolo[2,1-f][1,2,4]triazin-2-ylamino]-phenyl}-piperazin-1-yl)-ethanol]: the values for the IC50 on ALK and on JAK2 were 100 to 1000 nM and less than 100 nM, respectively.

With `CN1CCN(c2ccc(Nc3ncc4ccc(-c5ccccc5OCC(=O)O)n4n3)cc2)CC1` [Example 1182, (2-{2-[4-(4-Methyl-piperazin-1-yl)-phenylamino]-pyrrolo[2,1-f][1,2,4]triazin-7-yl}-phenoxy)-acetic acid], the figures for the IC50 on ALK and on JAK2 were 100 to 1000 nM and less than 100 nM, respectively.

With `COc1ccccc1-c1ccc2cnc(Nc3ccn(CCN4CCOCC4)n3)nn12` [Example 1183, [7-(2-Methoxy-phenyl)-pyrrolo[2,1-f][1,2,4]triazin-2-yl]-[1-(2-morpholin-4-yl-ethyl)-1H-pyrazol-3-yl]-amine], the values for the IC50 at ALK and at JAK2 were 100 to 1000 nM and less than 100 nM, respectively.

Regarding `c1cncc(-c2ccc3cnc(Nc4ccn(CCN5CCOCC5)n4)nn23)c1` [Example 1184, [1-(2-Morpholin-4-yl-ethyl)-1H-pyrazol-3-yl]-(7-pyridin-3-yl-pyrrolo[2,1-f][1,2,4]triazin-2-yl)-amine], the IC50 on ALK is more than 10000 nM; at JAK2 it was less than 100 nM.

Regarding `CS(=O)(=O)Nc1cccc(-c2ccc3cnc(Nc4ccn(CCN5CCOCC5)n4)nn23)c1` [Example 1185, N-(3-{2-[1-(2-Morpholin-4-yl-ethyl)-1H-pyrazol-3-ylamino]-pyrrolo[2,1-f][1,2,4]triazin-7-yl}-phenyl)-methanesulfonamide], the results for the IC50 at ALK and at JAK2 were 1000 to 10000 nM and less than 100 nM, respectively.

As for `CN(c1ccccc1-c1ccc2cnc(Nc3ccn(CCN4CCOCC4)n3)nn12)S(C)(=O)=O` [Example 1186, N-Methyl-N-(2-{2-[1-(2-morpholin-4-yl-ethyl)-1H-pyrazol-3-ylamino]-pyrrolo[2,1-f][1,2,4]triazin-7-yl}-phenyl)-methanesulfonamide], the results for the IC50 on ALK and at JAK2 were 100 to 1000 nM and less than 100 nM, respectively.

On to `Cn1cc(-c2ccc3cnc(Nc4ccc(N5CCC(N6CCOCC6)CC5)cc4)nn23)cn1` [Example 1187, [7-(1-Methyl-1H-pyrazol-4-yl)-pyrrolo[2,1-f][1,2,4]triazin-2-yl]-[4-(4-morpholin-4-yl-piperidin-1-yl)-phenyl]-amine], for which the figures for the IC50 on ALK and on JAK2 were 100 to 1000 nM and less than 100 nM, respectively.

`CN1CCN(C(=O)C2CCN(c3ccc(Nc4ncc5ccc(-c6cnn(C)c6)n5n4)cc3)CC2)CC1` [Example 1188, (4-Methyl-piperazin-1-yl)-(1-{4-[7-(1-methyl-1H-pyrazol-4-yl)-pyrrolo[2,1-f][1,2,4]triazin-2-ylamino]-phenyl}-piperidin-4-yl)-methanone]: the IC50 at ALK is 100 to 1000 nM; on JAK2 it was less than 100 nM.

`CCN1CCOC(c2ccc(Nc3ncc4ccc(-c5cnn(C)c5)n4n3)cc2)C1` (stereo not shown) [Example 1189, [4-(4-Ethyl-morpholin-2-yl)-phenyl]-[7-(1-methyl-1H-pyrazol-4-yl)-pyrrolo[2,1-f][1,2,4]triazin-2-yl]-amine]: the IC50 at ALK is 100 to 1000 nM; at JAK2, less than 100 nM.

With `COc1ccccc1-c1ccc2cnc(Nc3cnn(CCN4CCOCC4)c3)nn12` [Example 1190, [7-(2-Methoxy-phenyl)-pyrrolo[2,1-f][1,2,4]triazin-2-yl]-[1-(2-morpholin-4-yl-ethyl)-1H-pyrazol-4-yl]-amine], the IC50 on ALK is 1000 to 10000 nM; at JAK2, less than 100 nM.

As to `c1cncc(-c2ccc3cnc(Nc4cnn(CCN5CCOCC5)c4)nn23)c1` [Example 1191, [1-(2-Morpholin-4-yl-ethyl)-1H-pyrazol-4-yl]-(7-pyridin-3-yl-pyrrolo[2,1-f][1,2,4]triazin-2-yl)-amine], the figures for the IC50 on ALK and at JAK2 were more than 10000 nM and less than 100 nM, respectively.

With `COc1ccc(-c2ccc3cnc(Nc4cnn(CCN5CCOCC5)c4)nn23)cn1` [Example 1192, [7-(6-Methoxy-pyridin-3-yl)-pyrrolo[2,1-f][1,2,4]triazin-2-yl]-[1-(2-morpholin-4-yl-ethyl)-1H-pyrazol-4-yl]-amine], the IC50 at ALK was 1000 to 10000 nM; on JAK2, less than 100 nM.

Regarding `CN(c1ccccc1-c1ccc2cnc(Nc3cnn(CCN4CCOCC4)c3)nn12)S(C)(=O)=O` [Example 1193, N-Methyl-N-(2-{2-[1-(2-morpholin-4-yl-ethyl)-1H-pyrazol-4-ylamino]-pyrrolo[2,1-f][1,2,4]triazin-7-yl}-phenyl)-methanesulfonamide], the IC50 was 1000 to 10000 nM on ALK and less than 100 nM at JAK2.

For `CN1CCN(c2ccc(Nc3ncc4ccc(-c5cccc(NS(C)(=O)=O)c5)n4n3)nc2)CC1` [Example 1194, N-(3-{2-[5-(4-Methyl-piperazin-1-yl)-pyridin-2-ylamino]-pyrrolo[2,1-f][1,2,4]triazin-7-yl}-phenyl)-methanesulfonamide], the IC50 at ALK is 100 to 1000 nM; on JAK2 it was less than 100 nM.

In the case of `CS(=O)(=O)Nc1cccc(-c2ccc3cnc(Nc4cnn(CCN5CCOCC5)c4)nn23)c1` [Example 1195, N-(3-{2-[1-(2-Morpholin-4-yl-ethyl)-1H-pyrazol-4-ylamino]-pyrrolo[2,1-f][1,2,4]triazin-7-yl}-phenyl)-methanesulfonamide], the IC50 at ALK was 1000 to 10000 nM; on JAK2, less than 100 nM.

Take `CN1CCN(c2ccc(Nc3ncc4ccc(-c5ccc(C=O)o5)n4n3)cc2)CC1` [Example 1196, 5-{2-[4-(4-Methyl-piperazin-1-yl)-phenylamino]-pyrrolo[2,1-f][1,2,4]triazin-7-yl}-furan-2-carbaldehyde]: the IC50 is 100 to 1000 nM at ALK and less than 100 nM at JAK2.

Consider `CN1CCN(c2ccc(Nc3ncc4ccc(-c5ccccc5N(C)S(C)(=O)=O)n4n3)nc2)CC1` [Example 1197, N-Methyl-N-(2-{2-[5-(4-methyl-piperazin-1-yl)-pyridin-2-ylamino]-pyrrolo[2,1-f][1,2,4]triazin-7-yl}-phenyl)-methanesulfonamide], for which the results for the IC50 on ALK and at JAK2 were 100 to 1000 nM and less than 100 nM, respectively.

For `CN1CCN(c2ccc(Nc3ncc4ccc(-c5cncc(CNCCS(C)(=O)=O)c5)n4n3)cc2)CC1` [Example 1198, (7-{5-[(2-Methanesulfonyl-ethylamino)-methyl]-pyridin-3-yl}-pyrrolo[2,1-f][1,2,4]triazin-2-yl)-[4-(4-methyl-piperazin-1-yl)-phenyl]-amine], the IC50 was 1000 to 10000 nM at ALK and less than 100 nM at JAK2.

With `CN1CCN(c2ccc(Nc3ncc4ccc(-c5ccccc5CNCCS(C)(=O)=O)n4n3)cc2)CC1` [Example 1199, (7-{2-[(2-M ethanesulfonyl-ethylamino)-methyl]-phenyl}-pyrrolo[2,1-f][1,2,4]triazin-2-yl)-[4-(4-methyl-piperazin-1-yl)-phenyl]-amine], the IC50 is 1000 to 10000 nM at ALK and less than 100 nM at JAK2.
